Read-outs that look alike come from different tables or passages of the source.
What was measured:
D4 [1] = target: T1, D4 (Vaccinia virus, UniProt P04303, Y163F); assay type: binding; conditions: for thermal shift (in words): up to 50 μM
MBP = target: T2, MBP (Escherichia coli, UniProt P0AEX9); assay: DARTS, unrelated control protein MBP; assay type: binding; conditions: crude cell lysates
T2 construct: made in house; host or cells: bacterial cells, crude lysate

[2] = tested on: human estrogen receptor beta (ERβ-N), MBP fusion; assay: DARTS, unrelated control protein ERβ-N; assay type: binding; conditions: crude cell lysates
[3] = tested on: duplex or single-stranded DNA; assay: Isothermal titration calorimetry (ITC) DNA binding; conditions: 40 μM compound, 25° C.
Procedure: Fish sperm DNA (USB Scientific, USA) was dissolved in water and fragmented by sonication in order to generate a random DNA mix. The fragmented DNA was then dialyzed into column buffer absence of glycerol. The 15-mer oligomer comprised of poly d(TC) (Integrated DNA Technologies, USA) was directly prepared in the same buffer without the dialysis step. DNA and compounds were prepared in the same dialysis buffer with added 2.5 mM DTT, 1% DMSO, and 0.005% Tween-20. DNA binding was then assessed by isothermal titration calorimetry (ITC) on a MicroCal iTC200 microcalorimeter (Malvern Instruments, United Kingdom) by titrating 3 μL/injection of 1.2 mg/mL of random DNA (with unknown molar concentration) or 5.3 mg/L of single-stranded DNA into the sample consisting of 40 μM of compound. Experiments were performed at 25° C. with 800 rpm stirring and 3-min spacing in order to allow equilibration. Ethidium bromide (Sigma-Aldrich, USA) was freshly prepared in water. Since the molar concentrations of the DNA ligands were undefined, only raw heat values are depicted.

VV = assay: microbe, parasite or virus in culture; assay type: cell-based, vaccinia virus; conditions: Orthopoxvirus vaccinia, BSC-1, read-out: VV EC50
[4] = target: T3, E9/A20/D4 proteins (vaccinia virus vD4) (Vaccinia virus, UniProt P04303, Y163F); assay type: biochemical
T3 construct: made in house; host or cells: TNT reticulocyte lysate (in vitro translation)

mD4-VV surrogate virus = assay: microbe, parasite or virus in culture; assay type: cell-based, mD4/vaccinia hybrid virus; conditions: Hybrid virus, BSC-1, read-out: mD4 EC50
[5] = target: E9/A20/D4 proteins (molluscum mD4) (Molluscum contagiosum virus, UniProt Q98260); assay: biochemical
[6] = target: UL30 (DNA polymerase) and UL42 (processivity factor) (Human herpesvirus 1, UniProt P04293+P10226); assay type: biochemical, HSV-1
HSV-1 = assay type: cell-based; conditions: Vero cells
D4 [7] = target: T1, D4; assay type: binding; design: made in house; host or cells: bacterial cells (IPTG induction); purified for SPR, crude lysate for DARTS
in vitro = conditions: African green monkey
D4 [8] = target: T1, D4; assay type: binding; design: made in house; host or cells: bacterial cells (IPTG induction); purified for SPR, crude lysate for DARTS; remark: listed apart in the source
[9] = Irritancy on human cadaver skin; conditions: gel formulated 99
Procedure: Briefly, gel was applied to shaved skin areas, covered for 24 hours and irritancy was measured daily for 3 days after uncovering using the Draize scoring system.

[10] = Solubility in receptor medium; conditions: 1×PBS/4% BSA receptor medium, typical IVPT study
Source text: For this study, human torso skin was used rather than a membrane. Initially, methods development was done to identify the receiving medium in the reservoir of the Franz cell apparatus which provided the greatest compound solubility so that percentages of full penetration would not be underestimated due to poor solubility.

Chain of E9/A20/D4 proteins (molluscum mD4) (Q98260 1-226): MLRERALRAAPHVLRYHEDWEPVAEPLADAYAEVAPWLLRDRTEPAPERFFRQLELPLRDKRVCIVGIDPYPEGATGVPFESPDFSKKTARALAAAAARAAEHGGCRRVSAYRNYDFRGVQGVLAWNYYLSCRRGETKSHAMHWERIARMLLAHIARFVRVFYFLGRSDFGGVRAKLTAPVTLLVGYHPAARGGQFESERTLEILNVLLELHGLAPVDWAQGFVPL
Chain of UL30 (DNA polymerase) and UL42 (processivity factor) (P10226 whole entry): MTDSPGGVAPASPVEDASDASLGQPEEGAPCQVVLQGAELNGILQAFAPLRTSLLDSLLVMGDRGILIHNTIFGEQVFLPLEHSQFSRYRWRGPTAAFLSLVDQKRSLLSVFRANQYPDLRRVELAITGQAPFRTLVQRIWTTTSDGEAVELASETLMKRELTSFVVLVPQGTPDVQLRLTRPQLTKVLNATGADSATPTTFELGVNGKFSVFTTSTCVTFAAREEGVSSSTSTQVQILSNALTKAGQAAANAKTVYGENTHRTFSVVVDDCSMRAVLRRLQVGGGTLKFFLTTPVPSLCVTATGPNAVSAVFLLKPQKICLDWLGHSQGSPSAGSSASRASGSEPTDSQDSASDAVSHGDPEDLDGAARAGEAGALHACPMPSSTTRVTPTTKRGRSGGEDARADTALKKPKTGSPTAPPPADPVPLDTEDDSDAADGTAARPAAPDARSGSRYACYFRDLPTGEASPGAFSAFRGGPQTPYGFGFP
Chain of UL30 (DNA polymerase) and UL42 (processivity factor) (P04293 whole entry): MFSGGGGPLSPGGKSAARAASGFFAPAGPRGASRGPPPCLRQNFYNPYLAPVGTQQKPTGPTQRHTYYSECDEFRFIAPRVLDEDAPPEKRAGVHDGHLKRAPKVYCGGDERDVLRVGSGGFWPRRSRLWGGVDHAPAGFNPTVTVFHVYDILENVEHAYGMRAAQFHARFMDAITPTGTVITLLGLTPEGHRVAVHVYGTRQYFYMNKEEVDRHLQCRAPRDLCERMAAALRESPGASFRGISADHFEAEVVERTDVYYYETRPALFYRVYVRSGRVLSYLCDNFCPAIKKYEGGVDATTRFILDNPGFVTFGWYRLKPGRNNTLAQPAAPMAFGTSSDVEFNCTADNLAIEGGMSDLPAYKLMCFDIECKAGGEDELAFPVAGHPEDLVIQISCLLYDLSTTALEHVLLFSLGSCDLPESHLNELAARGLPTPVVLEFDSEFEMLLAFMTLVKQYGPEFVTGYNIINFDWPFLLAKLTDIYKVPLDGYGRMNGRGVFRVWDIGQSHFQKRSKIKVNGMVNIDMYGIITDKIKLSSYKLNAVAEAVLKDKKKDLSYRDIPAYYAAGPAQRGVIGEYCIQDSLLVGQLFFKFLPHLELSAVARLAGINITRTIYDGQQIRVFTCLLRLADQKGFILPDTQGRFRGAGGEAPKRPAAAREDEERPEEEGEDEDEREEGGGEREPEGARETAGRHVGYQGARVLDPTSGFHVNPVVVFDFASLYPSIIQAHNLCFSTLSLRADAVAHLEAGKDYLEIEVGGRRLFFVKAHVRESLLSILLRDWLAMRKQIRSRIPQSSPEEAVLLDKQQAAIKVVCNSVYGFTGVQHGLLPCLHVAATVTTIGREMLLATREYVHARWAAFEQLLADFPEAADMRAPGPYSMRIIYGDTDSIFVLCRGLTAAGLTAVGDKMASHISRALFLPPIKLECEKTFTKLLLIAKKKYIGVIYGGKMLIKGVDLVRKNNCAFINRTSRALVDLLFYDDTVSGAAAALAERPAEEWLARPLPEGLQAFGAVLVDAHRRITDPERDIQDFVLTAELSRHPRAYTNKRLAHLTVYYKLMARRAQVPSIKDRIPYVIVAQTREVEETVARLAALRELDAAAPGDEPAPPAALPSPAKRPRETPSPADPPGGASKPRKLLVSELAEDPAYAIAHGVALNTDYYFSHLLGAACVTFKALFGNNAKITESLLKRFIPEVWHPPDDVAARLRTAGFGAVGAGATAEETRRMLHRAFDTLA

Row | SMILES | ΔTm (D4 [1]; 25 µM) | ΔTm (D4 [1]; 50 µM) | EC50 (VV) [µM] | EC50 (mD4-VV surrogate virus) [µM] | IC50 [5] [µM] | effect on D4 protein levels after Pronase proteolysis (in words) (D4 [7]) | thermal shift (in words) (D4 [1]) | SPR binding to D4 (in words) (D4 [8]) | solubility sufficient to detect % of the applied amount [10] | other results
1 | CCC(C(=O)Nc1sc(C(N)=O)c(C)c1C(=O)OC)c1ccccc1 (centres unmarked) [Compound 1, methyl 5-carbamoyl-4-methyl-2-(2-phenylbutanamido)thiophene-3-carboxylate] | −0.86 | −1.55 | 15.1 | 22.9 | 16.3 | increase in D4 protein levels | – | – | – | effect on MBP protein levels after proteolysis (in words) (MBP): inability; effect on ERβ-N protein levels after proteolysis (in words) [2]: inability; DNA binding heat traces (in words) [3]: no appreciable total heats; inhibition of VACV DNA synthesis compared with mD4 reaction (in words) [4]: Nearly identical inhibition; inhibition of DNA synthesis using HSV-1 proteins (in words) [6]: no inhibition; antiviral activity against HSV-1 infection (in words) (HSV-1): lack of antiviral activity
2 | CCC(C(=O)Nc1sc(C(=O)O)c(C)c1C(=O)OC)c1ccc(C(F)(F)F)cc1 (centres unmarked) [Compound 199, 4-(methoxycarbonyl)-5-(2-(4-(trifluoromethyl)phenyl)butanamido)-3-methylthiophene-2-carboxylic acid] | – | – | – | 17.9 | – | – | – | – | – | CC50 (in vitro): > 100 µM
3 | O=C(NN1C(=O)[C@@H]2[C@@H]3C=C[C@@H]([C@H]4C[C@@H]34)[C@@H]2C1=O)c1ccc(C(F)(F)F)cc1 [ST-246] | −0.37 ± 0.08; ° C. | −0.26 ± 0.10 °C | – | – | – | did not affect the protein levels of D4 | no thermal shifts | near-baseline signals | – | –
4 | CCC(C(=O)Nc1sc(C(N)=O)c(C)c1C(=O)OC)c1ccc(F)cc1 (centres unmarked) [Compound 99, 5-Carbamoyl-2-[2-(4-fluoro-phenyl)-butyrylamino]-4-methyl-thiophene-3-carboxylic acid methyl ester] | – | – | 9 | 8.8 | 8.9 | – | – | – | up to 143% | irritancy score [9]: non-irritant
5 | Nc1ccn(C[C@@H](CO)OCP(=O)(O)O)c(=O)n1 [CDV, 1-((3-hydroxy-2-phosphonylmethoxy)propyl)cytosine] | −0.37 ± 0.14; ° C. | −0.27 ± 0.37 °C | – | – | – | did not affect the protein levels of D4 | no thermal shifts | near-baseline signals | – | –
6 | O=C(NCc1ccc(Cl)cc1)c1ccsc1NC(=O)N1CCN(c2ccccn2)CC1 [Compound 111, 4-Pyridin-2-yl-piperazine-1-carboxylic acid [3-(4-chloro-benzyl carbamoyl)-thiophen-2-yl]-amide] | – | – | – | 7 | 63.3 | – | – | – | ≤ 90% | –
